# In the supplement of paper PMC10307832:
# Experiments:
# Assay in all cases: relative viability (nuclei count vs DMSO), 5 days (fraction); higher = more cells survive
# 201T = system: 201T
# Procedure, shortened: (§1)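 Relative viability is defined as nuclei in treated wells over nuclei in vehicle wells. Duplicate plates were run and medians reported. Lung cancer cell lines in 1536-well plates were dosed by pin tool one day after seeding, with one drug or with a fixed anchor-drug dose plus five library-drug doses (not always all listed) in √10 steps, and nuclei were counted after 5 days.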
# ABC-1 = system: ABC-1
# Procedure, shortened: as §1
# CAL-12T = system: CAL-12T
# Procedure, shortened: as §1
# ChaGo-K-1 = system: ChaGo-K-1
# Procedure, shortened: as §1
# EMC-BAC-2 = system: EMC-BAC-2
# Procedure, shortened: as §1
# H3255 = system: H3255
# Procedure, shortened: as §1
# HOP-62 = system: HOP-62
# Procedure, shortened: as §1
# LK-2 = system: LK-2
# Procedure, shortened: as §1
# LXF-289 = system: LXF-289
# Procedure, shortened: as §1
# NCI-H1651 = system: NCI-H1651
# Procedure, shortened: as §1
# NCI-H1734 = system: NCI-H1734
# Procedure, shortened: as §1
# NCI-H1755 = system: NCI-H1755
# Procedure, shortened: as §1
# NCI-H2009 = system: NCI-H2009
# Procedure, shortened: as §1
# NCI-H2087 = system: NCI-H2087
# Procedure, shortened: as §1
# NCI-H2126 = system: NCI-H2126
# Procedure, shortened: as §1
# NCI-H2170 = system: NCI-H2170
# Procedure, shortened: as §1
# NCI-H3122 = system: NCI-H3122
# Procedure, shortened: as §1
# NCI-H322M = system: NCI-H322M
# Procedure, shortened: as §1
# NCI-H441 = system: NCI-H441
# Procedure, shortened: as §1
# NCI-H596 = system: NCI-H596
# Procedure, shortened: as §1
# NCI-H647 = system: NCI-H647
# Procedure, shortened: as §1
# PC-14 = system: PC-14
# Procedure, shortened: as §1
# SK-MES-1 = system: SK-MES-1
# Procedure, shortened: as §1
compound,measurement,setting,value
O=c1[nH]c2ccccc2n1C1CCN(CCCC(c2ccc(F)cc2)c2ccc(F)cc2)CC1 [Pimozide] + N=C(N)NC(=N)NCCc1ccccc1 [Phenformin] (partner 250 µM),relative viability,201T; first compound 0.08 µM,0.467
same,relative viability,201T; first compound 0.253 µM,0.404
same,relative viability,201T; first compound 0.8 µM,0.444
same,relative viability,201T; first compound 2.53 µM,0.379
same,relative viability,201T; first compound 8 µM,0.44
same,relative viability,ABC-1; first compound 0.08 µM,0.265
same,relative viability,ABC-1; first compound 0.253 µM,0.258
same,relative viability,ABC-1; first compound 0.8 µM,0.227
same,relative viability,ABC-1; first compound 2.53 µM,0.287
same,relative viability,ABC-1; first compound 8 µM,0.209
same,relative viability,CAL-12T; first compound 0.08 µM,0.581
same,relative viability,CAL-12T; first compound 0.253 µM,0.506
same,relative viability,CAL-12T; first compound 0.8 µM,0.623
same,relative viability,CAL-12T; first compound 2.53 µM,0.496
same,relative viability,CAL-12T; first compound 8 µM,0.575
same,relative viability,ChaGo-K-1; first compound 0.08 µM,0.565
same,relative viability,ChaGo-K-1; first compound 0.253 µM,0.529
same,relative viability,ChaGo-K-1; first compound 0.8 µM,0.461
same,relative viability,ChaGo-K-1; first compound 2.53 µM,0.458
same,relative viability,ChaGo-K-1; first compound 8 µM,0.399
same,relative viability,EMC-BAC-2; first compound 0.08 µM,0.561
same,relative viability,EMC-BAC-2; first compound 0.253 µM,0.515
same,relative viability,EMC-BAC-2; first compound 0.8 µM,0.483
same,relative viability,EMC-BAC-2; first compound 2.53 µM,0.486
same,relative viability,EMC-BAC-2; first compound 8 µM,0.519
same,relative viability,H3255; first compound 0.253 µM,0.37
same,relative viability,H3255; first compound 0.8 µM,0.387
same,relative viability,H3255; first compound 2.53 µM,0.372
same,relative viability,H3255; first compound 8 µM,0.4
same,relative viability,HOP-62; first compound 0.08 µM,0.67
same,relative viability,HOP-62; first compound 0.253 µM,0.657
same,relative viability,HOP-62; first compound 2.53 µM,0.644
same,relative viability,HOP-62; first compound 8 µM,0.655
same,relative viability,LK-2; first compound 0.08 µM,0.501
same,relative viability,LK-2; first compound 0.253 µM,0.367
same,relative viability,LK-2; first compound 2.53 µM,0.237
same,relative viability,LK-2; first compound 8 µM,0.345
same,relative viability,LXF-289; first compound 0.08 µM,0.501
same,relative viability,LXF-289; first compound 0.253 µM,0.502
same,relative viability,LXF-289; first compound 0.8 µM,0.475
same,relative viability,LXF-289; first compound 2.53 µM,0.505
same,relative viability,LXF-289; first compound 8 µM,0.487
same,relative viability,NCI-H1651; first compound 0.08 µM,0.346
same,relative viability,NCI-H1651; first compound 0.253 µM,0.305
same,relative viability,NCI-H1651; first compound 0.8 µM,0.316
same,relative viability,NCI-H1651; first compound 2.53 µM,0.338
same,relative viability,NCI-H1651; first compound 8 µM,0.283
same,relative viability,NCI-H1734; first compound 0.08 µM,0.408
same,relative viability,NCI-H1734; first compound 0.253 µM,0.366
same,relative viability,NCI-H1734; first compound 2.53 µM,0.373
same,relative viability,NCI-H1734; first compound 8 µM,0.426
same,relative viability,NCI-H1755; first compound 0.08 µM,0.585
same,relative viability,NCI-H1755; first compound 0.253 µM,0.587
same,relative viability,NCI-H1755; first compound 0.8 µM,0.574
same,relative viability,NCI-H1755; first compound 2.53 µM,0.64
same,relative viability,NCI-H1755; first compound 8 µM,0.538
same,relative viability,NCI-H2009; first compound 0.08 µM,0.476
same,relative viability,NCI-H2009; first compound 0.253 µM,0.479
same,relative viability,NCI-H2009; first compound 0.8 µM,0.507
same,relative viability,NCI-H2009; first compound 2.53 µM,0.46
same,relative viability,NCI-H2009; first compound 8 µM,0.391
same,relative viability,NCI-H2087; first compound 0.08 µM,0.5
same,relative viability,NCI-H2087; first compound 0.253 µM,0.47
same,relative viability,NCI-H2087; first compound 2.53 µM,0.464
same,relative viability,NCI-H2087; first compound 8 µM,0.393
same,relative viability,NCI-H2126; first compound 0.08 µM,0.513
same,relative viability,NCI-H2126; first compound 0.253 µM,0.519
same,relative viability,NCI-H2126; first compound 0.8 µM,0.464
same,relative viability,NCI-H2126; first compound 2.53 µM,0.525
same,relative viability,NCI-H2126; first compound 8 µM,0.584
same,relative viability,NCI-H2170; first compound 0.08 µM,0.411
same,relative viability,NCI-H2170; first compound 0.253 µM,0.383
same,relative viability,NCI-H2170; first compound 0.8 µM,0.44
same,relative viability,NCI-H2170; first compound 2.53 µM,0.399
same,relative viability,NCI-H2170; first compound 8 µM,0.367
same,relative viability,NCI-H3122; first compound 0.08 µM,0.372
same,relative viability,NCI-H3122; first compound 0.253 µM,0.362
same,relative viability,NCI-H3122; first compound 0.8 µM,0.393
same,relative viability,NCI-H3122; first compound 2.53 µM,0.343
same,relative viability,NCI-H3122; first compound 8 µM,0.312
same,relative viability,NCI-H322M; first compound 0.253 µM,0.738
same,relative viability,NCI-H322M; first compound 0.8 µM,0.766
same,relative viability,NCI-H322M; first compound 2.53 µM,0.816
same,relative viability,NCI-H322M; first compound 8 µM,0.749
same,relative viability,NCI-H441; first compound 0.08 µM,0.96
same,relative viability,NCI-H441; first compound 0.253 µM,0.758
same,relative viability,NCI-H441; first compound 0.8 µM,0.767
same,relative viability,NCI-H441; first compound 2.53 µM,0.783
same,relative viability,NCI-H441; first compound 8 µM,0.825
same,relative viability,NCI-H596; first compound 0.08 µM,0.751
same,relative viability,NCI-H596; first compound 0.253 µM,0.774
same,relative viability,NCI-H596; first compound 0.8 µM,0.588
same,relative viability,NCI-H596; first compound 2.53 µM,0.637
same,relative viability,NCI-H596; first compound 8 µM,0.897
same,relative viability,NCI-H647; first compound 0.08 µM,0.59
same,relative viability,NCI-H647; first compound 0.253 µM,0.497
same,relative viability,NCI-H647; first compound 0.8 µM,0.435
same,relative viability,NCI-H647; first compound 2.53 µM,0.452
same,relative viability,NCI-H647; first compound 8 µM,0.527
same,relative viability,PC-14; first compound 0.253 µM,0.451
same,relative viability,PC-14; first compound 2.53 µM,0.4
same,relative viability,PC-14; first compound 8 µM,0.517
same,relative viability,SK-MES-1; first compound 0.08 µM,0.628
same,relative viability,SK-MES-1; first compound 0.253 µM,0.619
same,relative viability,SK-MES-1; first compound 0.8 µM,0.664
same,relative viability,SK-MES-1; first compound 2.53 µM,0.587
same,relative viability,SK-MES-1; first compound 8 µM,0.603
